Laboratory results as given in paper PMC8597046, “Use of Mixture Dosing and Nonlinear Mixed Effect Modeling of Eight Environmental Contaminants in Rabbits to Improve Extrapolation Value of Toxicokinetic Data” (Environmental Health Perspectives, 2021).

Tests used:
[1] = Estimation of loading and daily maintenance doses and NLME model simulations; parameters: species or system female rabbits; conditions: oral; for Computed maintenance dose: daily; for Computed maintenance dose / Computed loading dose: scaled to the targeted CSS of Table 6; for Daily maintenance dose: to maintain serum concentration of 1 ng/mL, daily CL×Css/F; for Daily maintenance dose / Loading dose: DEHP dose for MEHP in serum; for Loading dose: to rapidly attain serum concentration of 1 ng/mL, Vss×Css/F
How it was run: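 Loading and daily maintenance doses computed from TK equations for a nominal CSS of 1 ng/mL, then scaled to oral doses for female rabbits. NLME model simulated central and peripheral compartment amounts over repeated daily maintenance dosing.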

[2] = rodents; ref Staskal et al. 2005; cited from earlier work
[3] = TK assay, oral mixture dosing: serum concentrations and noncompartmental analysis (sparse data); conditions: female, rabbit, in vivo, po; for concentration at 24 h / concentration at 23.98 h / concentration at 168 h / concentration at 0.57 h / concentration at 672.02 h / concentration at 0.55 h / concentration at 671.96 h / concentration at 72 h / concentration at 71.96 h / concentration at 168.02 h: Serum concentration; for concentration at 24 h / concentration at 23.98 h / concentration at 72 h / concentration at 71.96 h: oral, MEHP after oral DEHP; for concentration at 23.98 h: rabbit 15, 23.98 h; for concentration at 0.57 h: rabbit 22, 0.57 h; for concentration at 671.96 h: rabbit 23, 671.96 h; for concentration at 71.96 h: rabbit 18, 71.96 h; for concentration at 168.02 h: rabbit 19, 168.02 h
How it was run: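 Female New Zealand white rabbits (10-wk, 2.37±0.14kg) got the compound mixture IV via ear-vein catheter or orally into the mouth; serum sampled 15 min to 28 d, 3 (or 6 at 30 min) rabbits per time. Sparse-data noncompartmental analysis gave AUC (linear trapezoidal), CL or CL_F, half-life and F.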

[4] = TK assay, intravenous mixture dosing: serum concentrations and noncompartmental analysis (sparse data); conditions: female, rabbit, in vivo, iv; for AUC(0-inf) / Cmax / MRT / clearance / half-life / Vd: New Zealand white (INRA 1777 line); for Vd: IV mixture dosing, NCA, n=12; for concentration at 24.03 h / concentration at 24 h / concentration at 72 h / concentration at 72.03 h / concentration at 71.97 h / concentration at 168 h / concentration at 167.92 h / concentration at 0.67 h / concentration at 671.96 h / concentration at 0.77 h / concentration at 672 h / concentration at 0.6 h / concentration at 671.83 h: New Zealand white, Serum concentration; for concentration at 24.03 h: rabbit 1, 24.03 h; for concentration at 72 h: rabbit 4, 72.00 h; for concentration at 72.03 h: rabbit 5, 72.03 h; for concentration at 71.97 h: rabbit 6, 71.97 h; for concentration at 167.92 h: rabbit 8, 167.92 h; for concentration at 0.67 h: rabbit 10, 0.67 h; for concentration at 671.96 h: rabbit 10, 671.96 h; for concentration at 0.77 h: rabbit 11, 0.77 h; for concentration at 672 h: rabbit 11, 672.00 h; for concentration at 0.6 h: rabbit 12, 0.60 h; for concentration at 671.83 h: rabbit 12, 671.83 h
How it was run: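 Female New Zealand white rabbits received a compound mixture IV via ear-vein catheter; serum sampled sparsely (3 rabbits/time point) from 15 min to 28 d. Noncompartmental sparse-data analysis on mean profiles: linear-trapezoidal AUC, CL as dose/AUC0−inf, half-life from λZ, MRT and VSS.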

[5] = New Zealand white (INRA 1777 line)
[6] = New Zealand white (INRA 1777 line), rabbit 13, […]
[7] = New Zealand white (INRA 1777 line), rabbit 14, […]
[8] = New Zealand white (INRA 1777 line), rabbit 21, 168.00 h
[9] = New Zealand white (INRA 1777 line), rabbit 22, 672.02 h
[10] = New Zealand white (INRA 1777 line), rabbit 23, 0.55 h
[11] = New Zealand white (INRA 1777 line), rabbit 24, 0.55 h
[12] = New Zealand white (INRA 1777 line), rabbit 24, 672.02 h
[13] = New Zealand white, rabbit 16, 72.00 h
[14] = New Zealand white, rabbit 17, 72.00 h
[15] = New Zealand white, rabbit 20, 168.00 h

Brc1ccc(Oc2ccc(Br)cc2Br)c(Br)c1 [BDE-47, 2,2′,4,4′-tetrabromodiphenyl ether]
Computed maintenance dose [1]: 1.3 µg/kg | Computed loading dose [1]: 7.5 µg/kg | Daily maintenance dose [1]: 8.4 µg/kg | Loading dose [1]: 47 µg/kg | Intestinal absorption [2]: 82% | AUC(0-inf) [3, 5]: 79.5 µM·h | CL/F [3, 5]: 5 mL/min/kg | Cmax [3, 5]: 640 nM | MRT [3, 5]: 10.8 days | Tmax [3, 5]: 1 days | Vd/F [3, 5]: 116 L/kg | bioavailability [3, 5]: 78% | half-life [3, 5]: 11.1 days | concentration at 24 h [3, 6]: 770 nM | concentration at 24 h [3, 7]: 510 nM | concentration at 23.98 h [3, 5]: 300 nM | concentration at 168 h [3, 8]: 110 nM | concentration at 0.57 h [3, 5]: 12 nM | concentration at 672.02 h [3, 9]: 17 nM | concentration at 0.55 h [3, 10]: 33 nM | concentration at 671.96 h [3, 5]: 27 nM | concentration at 0.55 h [3, 11]: 110 nM | concentration at 672.02 h [3, 12]: 30 nM | concentration at 72 h [3, 13]: 160 nM | concentration at 72 h [3, 14]: 210 nM | concentration at 71.96 h ([3]; New Zealand white): 300 nM | concentration at 168.02 h ([3]; New Zealand white): 92 nM | concentration at 168 h [3, 15]: 120 nM | AUC(0-inf) [4]: 42.2 µM·h | Cmax [4]: 1820 nM | MRT [4]: 3.62 days | clearance [4]: 3.83 mL/min/kg | half-life [4]: 6.75 days | Vd ([4]; VSS): 20.3 L/kg | Vd ([4]; VZ): 54.8 L/kg | concentration at 24.03 h [4]: 120 nM | concentration at 24 h ([4]; rabbit 2, […]): 140 nM | concentration at 24 h ([4]; rabbit 3, […]): 130 nM | concentration at 72 h [4]: 56 nM | concentration at 72.03 h [4]: 63 nM | concentration at 71.97 h [4]: 42 nM | concentration at 168 h ([4]; rabbit 7, 168.00 h): 31 nM | concentration at 167.92 h [4]: 25 nM | concentration at 168 h ([4]; rabbit 9, 168.00 h): 37 nM | concentration at 0.67 h [4]: 1990 nM | concentration at 671.96 h [4]: 3.9 nM | concentration at 0.77 h [4]: 1770 nM | concentration at 672 h [4]: 5.3 nM | concentration at 0.6 h [4]: 1820 nM | concentration at 671.83 h [4]: 2.8 nM

Cl[C@H]1[C@H](Cl)[C@@H](Cl)[C@H](Cl)[C@@H](Cl)[C@@H]1Cl [β-HCH, β-hexachlorocyclohexane]
Computed maintenance dose [1]: 11 µg/kg | Computed loading dose [1]: 163 µg/kg | Daily maintenance dose [1]: 2.4 µg/kg | Loading dose [1]: 37 µg/kg | AUC(0-inf) [3, 5]: 67.1 µM·h | CL/F [3, 5]: 1.73 mL/min/kg | Cmax [3, 5]: 297 nM | MRT [3, 5]: 15.4 days | Tmax [3, 5]: 1 days | Vd/F [3, 5]: 47 L/kg | bioavailability [3, 5]: 55% | half-life [3, 5]: 13.1 days | concentration at 24 h [3, 6]: 390 nM | concentration at 24 h [3, 7]: 200 nM | concentration at 23.98 h [3, 5]: 190 nM | concentration at 168 h [3, 8]: 99 nM | concentration at 0.57 h [3, 5]: 29 nM | concentration at 672.02 h [3, 9]: 13 nM | concentration at 0.55 h [3, 10]: 73 nM | concentration at 671.96 h [3, 5]: 30 nM | concentration at 0.55 h [3, 11]: 250 nM | concentration at 672.02 h [3, 12]: 43 nM | concentration at 72 h [3, 13]: 94 nM | concentration at 72 h [3, 14]: 160 nM | concentration at 71.96 h ([3]; New Zealand white): 180 nM | concentration at 168.02 h ([3]; New Zealand white): 88 nM | concentration at 168 h [3, 15]: 89 nM | AUC(0-inf) [4]: 26.7 µM·h | Cmax [4]: 320 nM | MRT [4]: 22.6 days | clearance [4]: 0.95 mL/min/kg | half-life [4]: 13.8 days | Vd ([4]; VSS): 30.9 L/kg | Vd ([4]; VZ): 27.1 L/kg | concentration at 24.03 h [4]: 62 nM | concentration at 24 h ([4]; rabbit 2, […]): 50 nM | concentration at 24 h ([4]; rabbit 3, […]): 76 nM | concentration at 72 h [4]: 36 nM | concentration at 72.03 h [4]: 34 nM | concentration at 71.97 h [4]: 29 nM | concentration at 168 h ([4]; rabbit 7, 168.00 h): 20 nM | concentration at 167.92 h [4]: 18 nM | concentration at 168 h ([4]; rabbit 9, 168.00 h): 25 nM | concentration at 0.67 h [4]: 320 nM | concentration at 671.96 h [4]: 6.5 nM | concentration at 0.77 h [4]: 250 nM | concentration at 672 h [4]: 21 nM | concentration at 0.6 h [4]: 270 nM | concentration at 671.83 h [4]: 9.6 nM
